Assay results: PMC8000724, “Trans-Epithelial Transport, Metabolism, and Biological Activity Assessment of the Multi-Target Lupin Peptide [sequence] (P5) and Its Metabolite [sequence] (P5-Met)” (Nutrients, 2021)

Columns and labels:
[1] = tested on: differentiated Caco-2 cells (AP membrane peptidases); assay: Metabolites of P5 produced by Caco-2 cell peptidases, MS analysis of AP solutions; format: in vitro ADME, human; design: key to Metabolite of P5 identified in the AP compartment: Mixture / Metabolite of P5 identified in the AP compartment: Alone: x, detected; n.d., not detected
Description: Prior to experiments, the cell monolayer integrity and differentiation were checked by TEER measurement as described in detail above. Peptide trans-epithelial passage was assayed in differentiated Caco-2 cells in transport buffer solution (137 mM NaCl, 5.36 mM KCl, 1.26 mM CaCl2, and 1.1 mM MgCl2, 5.5 mM glucose) according to previously described conditions. In order to reproduce the pH conditions existing in vivo in the small intestinal mucosa, the apical (AP) solutions were maintained at pH 6.0 (buffered with 10 mM morpholinoethane sulfonic acid), and the basolateral (BL)solutions were maintained at pH 7.4 (buffered with 10 mM […]). Prior to transport experiments, cells were washed twice with 500 µL PBS containing Ca^++ and Mg^++. Peptide transportation by mature Caco-2 cells was assayed by loading the AP compartment with P5 alone, in mixture with […] (P3) and […] (P7), and/or P5-met (500 μM) in the AP transport solution (500 µL) and the BL compartment with the BL transport solution (700 µL). The plates were incubated at 37 °C and the BL solutions were collected at different time points (i.e., 15, 30, 60, 90, and 120 min) and replaced with fresh solutions pre-warmed at 37 °C. All BL and AP solutions collected at the end of the transport experiment were stored at −80 °C prior to analysis. Three independent transport experiments were performed, each in duplicate. In order to assess the involvement of transcytotic process in peptides passage, parallel transport experiments were performed in the presence of 500 nM wortmannin in both the AP and BL compartment, over 60 min incubation time.
The medium collected at the end of transport experiments from AP and BL chambers (500 µL and 700 µL, respectively) were freeze-dried and residues were solubilized in HPLC water (100 µL). Samples were desalted with C18 resin ZipTip by using 80% ACN, 0.1% FA as eluent (Millipore Corporation, Bedford, MA, USA). Each sample was lyophilized under speed-vacuum for 5 h at 30°C and re-dissolved in 50 μL (0.1% formic acid), before MS analysis. Purified BL samples were analyzed on a SL IT mass spectrometer interfaced with a HPLC- Chip Cube source (Agilent Technologies, Palo Alto, CA, USA). Data were processed with MSD Trap control 4.2, and Data analysis 4.2 version (Agilent Technologies, Palo Alto, CA, USA). The chromatographic separation was performed using a 1200 HPLC system equipped with a binary pump. […] Specifically, The monitored MRM transitions of P5-met were from the mono-charged precursor ion [M^+H]^+ (m/z 882.43) to product-ions m/z 678.3 and 407.1, respectively. […]

HMGCoAR = assay: Western blot, HMGCoAR protein level in HepG2 cells; format: cell-based, human; conditions: HepG2, 50 µM, 24 h, mean ± SD
Description: The HepG2 cell line was bought from ATCC (HB-8065, ATCC from LGC Standards, Milan, Italy) and was cultured in DMEM high glucose with stable L-glutamine, supplemented with 10% FBS, 100 U/mL penicillin, 100 µg/mL streptomycin (complete growth medium) with incubation at 37 °C under 5% CO2 atmosphere.
Immunoblotting experiments were performed using optimized protocol. A total of 1.5 × 10^5 HepG2 cells/well (24-well plate) were treated with 50 μM of P5 and P5-met for 24 h. After each treatment, the supernatants were collected and stored at −20°C; cells were scraped in 40 µL ice-cold lysis buffer (RIPA buffer + inhibitor cocktail + 1:100 PMSF + 1:100 Na-orthovanadate + 1:1000 β-mercaptoethanol) and transferred in ice-cold microcentrifuge tubes. […] Total proteins were quantified by the Bradford’s method and 50 μg of total proteins loaded on a pre-cast 7.5% Sodium Dodecyl Sulfate-Polyacrylamide (SDS-PAGE) gel at 130 V for 45 min. […] Target proteins, on milk or BSA blocked membrane, were detected by primary antibodies as follows: anti-SREBP-2, anti-LDLR, anti-HMGCoAR, anti-PCSK9, anti HNF1-α and anti-β-actin. Secondary antibodies conjugated with HRP and a chemiluminescent reagent were used to visualize target proteins and their signal was quantified using the Image Lab Software (Biorad, Hercules, CA, USA). […]

- Spectral Intensity of the metabolite in the AP compartment ([1]; Caco-2, AP compartment, end of incubation 120 min, used as measure of metabolite abundance): 1.21 × 10^7
- Metabolite of P5 identified in the AP compartment: Alone ([1]; P5 incubated alone (500 μM), Caco-2, end of incubation 120 min): x
- Metabolite of P5 identified in the AP compartment: Mixture ([1]; P5 incubated in mixture with P3 and P7 (500 μM each), Caco-2, end of incubation 120 min): x
Substance: H-LPKHSDAD-OH [Peptide P5-met]
- HMGCoAR protein level versus the control (HMGCoAR): 117.9 ± 12.1%
